Measurements published in patent US4476129A, “4-[2-[Bis(halophenyl)methoxy]-ethyl]-α-(substituted phenyl)-1-piperazinealkanol derivatives, processes for their preparation and pharmaceutical preparations containing them” (priority 1982, dated 1984).
“And” between values parts separate entries of the source, which are not always exact repeats. Equal values may be shown once. Where a name gives a salt, the structure may show the parent alone. Read-outs that look alike come from different tables or passages of the source.

How the values were obtained:
dopamine receptors [1] = molecular target: T1, dopamine receptors (Rattus norvegicus, UniProt P61169); assay: Affinity to dopamine receptors (receptor binding)
T1 construct: membrane fraction of the corpus striatum of the rat; from tissue; host or cells: rat corpus striatum, membrane fraction
Experimental: (§1) B. Affinity to dopamine receptors.
(§2) The affinity of the compounds to the dopamine receptors in a membrane fraction of the corpus striatum of the rat was determined as described by D. R. Burt et al., Mol. Pharmacol., 12, 800-812 (1976), dopamine and the dopamine antagonist haloperiodol being used as radioactive labelled ligands. The IC50-value is the concentration of the piperazine derivatives necessary to inhibit the specific binding of dopamine, or haloperiodol for 50%.

dopamine receptors [2] = assay: Affinity to dopamine receptors (receptor binding); design: species or system rat; details: membrane fraction of corpus striatum of the rat, radioactive labelled dopamine as ligand
Experimental: as §1, §2

[3] = tested on: stereotyped behaviour in female Wistar rats; assay: Stereotypy in the rat (stereotyped behaviour); format: in vivo; details: 50% of the maximal effect, observed 15-300 minutes after administration; for ED50: Rattus norvegicus, po; for ED50, stereotyped behaviour: p.o.
Experimental: C. Stereotypy in the rat.
The stereotyped behavior appearing in the rat after administration of centrally active dopaminergic substances can be regarded as a relevant test for antiparkinson agents.
The tests were carried out with female Wistar rats under conditions with a low level of stimuli. The behaviour of the rats was observed on 15, 30, 60, 120, 180, 240 and 300 minutes after administration of the substance, the following parameters being considered:
The total impression of the intensity of stereotypy was noted according to the following rating:
For each dose a group of four rats was used, so that the total score for the seven observations was maximally 7×4×3=84.

[4] = tested on: dopamine uptake by striatal synaptosomes (corpus striatum of the rat); assay: Inhibition of re-uptake of dopamine by striatal synaptosomes; format: biochemical; details: radioactive labelled dopamine
Experimental: A. Inhibition of re-uptake of dopamine by striatal synaptosomes.
The re-uptake process is the most important physiological mechanism causing inactivation of neurotransmitters like dopamine, which are released into the synaptic cleft by a nervous impulse. Inhibition of the dopamine uptake will lead to increased concentration of dopamine in the synaptic cleft and potentiation of the dopamine effect on the post-synaptic receptor. This inhibition was examined in vitro by incubation of synaptosomes of the corpus striatum of the rat with radioactive labelled dopamine, as described by P. van der Zee and W. Hespe, Neuropharmacol. 17, 483-490 (1978). Measurements were made of the concentration of the test compound giving 50% inhibition of the uptake (IC50).

[5] = membrane fraction of corpus striatum of the rat, radioactive labelled haloperidol (dopamine antagonist) as ligand, read-out: IC50, receptor binding haloperidol

T1 sequence (P61169 whole entry): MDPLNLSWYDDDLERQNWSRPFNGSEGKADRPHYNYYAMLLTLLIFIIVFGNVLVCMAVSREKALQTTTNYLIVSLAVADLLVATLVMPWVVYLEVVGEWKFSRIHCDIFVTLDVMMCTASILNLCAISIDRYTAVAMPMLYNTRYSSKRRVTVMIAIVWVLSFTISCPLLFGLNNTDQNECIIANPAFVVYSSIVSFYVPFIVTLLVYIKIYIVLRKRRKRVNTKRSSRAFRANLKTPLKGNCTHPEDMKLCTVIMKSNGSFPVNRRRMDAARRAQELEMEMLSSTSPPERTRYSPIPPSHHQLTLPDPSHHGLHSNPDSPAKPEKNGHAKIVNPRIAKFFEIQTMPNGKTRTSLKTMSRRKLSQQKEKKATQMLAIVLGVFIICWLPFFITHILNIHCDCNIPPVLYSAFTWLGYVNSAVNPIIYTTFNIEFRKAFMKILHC

| SMILES | IC50 (dopamine receptors [1]; [5]) | IC50 (dopamine receptors [2]) | ED50 [3] | IC50 [4] | IC50 (dopamine receptors [1]) | ED50, stereotyped behaviour [3] |
| --- | --- | --- | --- | --- | --- | --- |
| OC(CN1CCN(CCOC(c2ccc(F)cc2)c2ccc(F)cc2)CC1)c1ccccc1 (stereo not drawn) [Compound 1, 4-[2-[bis(4-fluorophenyl)methoxy]ethyl]-α-phenyl-1-piperazineethanol] | 780 nM | 46.7 nM | 17.5 mg/kg | 26.5 nM | – | – |
| OC(CCN1CCN(CCOC(c2ccc(F)cc2)c2ccc(F)cc2)CC1)c1ccccc1 (stereo not drawn) [Compound 2, 4-[2-[bis(4-fluorophenyl)methoxy]ethyl]-α-phenyl-1-piperazinepropanol] | – | 13.3 nM | – | 1.3 nM | 307 nM | – |
| OC(CCN1CCN(CCOC(c2ccc(F)cc2)c2ccc(F)cc2)CC1)c1ccc(F)cc1 (stereo not drawn) [Compound 3, 4-[2-[bis(4-fluorophenyl)methoxy]ethyl]-α-(4-fluorophenyl)-1-piperazinepropanol] | 610 nM | 8.7 nM | 1.7 mg/kg | 8.2 nM | – | 2.3 mg/kg p.o. and 1.3 mg/kg p.o. |
| OC(Cc1ccccc1)CN1CCN(CCOC(c2ccc(F)cc2)c2ccc(F)cc2)CC1 (stereo not drawn) [Compound 4, 4-[2-[bis(4-fluorophenyl)methoxy]ethyl]-α-(phenylmethyl)-1-piperazineethanol] | 546 nM | 30.5 nM | ~6 mg/kg | 5.4 nM | – | – |
| CC(O)(CCN1CCN(CCOC(c2ccc(F)cc2)c2ccc(F)cc2)CC1)c1ccccc1 (stereo not drawn) [Compound 5, 4-[2-[bis(4-fluorophenyl)methoxy]ethyl]-α-phenyl-α-methyl-1-piperazinepropanol] | 283 nM | 22.3 nM | 14 mg/kg | 2.4 nM | – | – |
| CC(O)(CCN1CCN(CCOC(c2ccc(F)cc2)c2ccc(F)cc2)CC1)c1ccc(F)cc1 (stereo not drawn) [Compound 6, 4-[2-[bis(4-fluorophenyl)methoxy]ethyl]-α-(4-fluorophenyl)-α-methyl-1-piperazinepropanol] | 277 nM | 32.3 nM | 11.4 mg/kg | 6.7 nM | – | – |
| CCC(O)(CCN1CCN(CCOC(c2ccc(F)cc2)c2ccc(F)cc2)CC1)c1ccccc1 (stereo not drawn) [Compound 7, 4-[2-[bis(4-fluorophenyl)methoxy]ethyl]-α-ethyl-α-phenyl-1-piperazinepropanol] | 361 nM | 63 nM | 26 mg/kg | 22.1 nM | – | – |
| OC(CCCN1CCN(CCOC(c2ccc(F)cc2)c2ccc(F)cc2)CC1)c1ccccc1 (stereo not drawn) [Compound 8, 4-[2-[bis(4-fluorophenyl)methoxy]ethyl]-α-phenyl-1-piperazinebutanol] | 445 nM | 4 nM | 6.2 mg/kg | 3.4 nM | – | 4.6 mg/kg p.o. |
| Cl.Cl.OC(CCCN1CCN(CCOC(c2ccc(F)cc2)c2ccc(F)cc2)CC1)c1ccc(F)cc1 (stereo not drawn) [Compound 9, 4-[2-[bis(4-fluorophenyl)methoxy]ethyl]-α-(4-fluorophenyl)-1-piperazinebutanol dihydrochloride] | – | 18.1 nM | < 5 mg/kg | 2.8 nM | 492 nM | – |
| O=C(CN1CCN(CCOC(c2ccc(F)cc2)c2ccc(F)cc2)CC1)c1ccccc1 [Compound 10, 2-[4-[2-[bis(4-fluorophenyl)methoxy]ethyl]-1-piperazinyl]-1-phenylethanonedihydrochloride] | 524 nM | 55 nM | – | 28.3 nM | – | – |
| O=C(CCN1CCN(CCOC(c2ccc(F)cc2)c2ccc(F)cc2)CC1)c1ccccc1 [Compound 11, 3-[4-[2-[bis(4-fluorophenyl)methoxy]ethyl]-1-piperazinyl]-1-phenyl-1-propanone] | – | 80.3 nM | < 5.5 mg/kg | 39.7 nM | 268 nM | – |
| O=C(CCN1CCN(CCOC(c2ccc(F)cc2)c2ccc(F)cc2)CC1)c1ccc(F)cc1 [Compound 12, 3-[4-[2-[bis(4-fluorophenyl)methoxy]ethyl]-1-piperazinyl]-1-(4-fluorophenyl)-1-propanone] | 467 nM | 180 nM | 5.5 mg/kg | 35.4 nM | – | – |
| Cl.Cl.O=C(Cc1ccccc1)CN1CCN(CCOC(c2ccc(F)cc2)c2ccc(F)cc2)CC1 [Compound 13, 1-[4-[2-[bis(4-fluorophenyl)methoxy]ethyl]-1-piperazinyl]-3-phenyl-2-propanone dihydrochloride] | – | 76 nM | 9.1 mg/kg | 27 nM | 545 nM | – |
| Cl.Cl.O=C(CCCN1CCN(CCOC(c2ccc(F)cc2)c2ccc(F)cc2)CC1)c1ccccc1 [Compound 14, 4-[4-[2-[bis(4-fluorophenyl)methoxy]-ethyl]-1-piperazinyl]-1-phenyl-1-butanone dihydrochloride] | – | 15.5 nM | 18 mg/kg | 2.5 nM | 23.3 nM | – |
| O=C(CCCN1CCN(CCOC(c2ccc(F)cc2)c2ccc(F)cc2)CC1)c1ccc(F)cc1 [Compound 15, 4-[4-[2bis(4-fluorophenyl)methoxy]ethyl]-1-piperazinyl]-1-(4-fluorophenyl)-1-butanone dihydrochloride] | – | 291 nM | > 46 mg/kg | 5.2 nM | 19 nM | – |
| COC(CCN1CCN(CCOC(c2ccc(F)cc2)c2ccc(F)cc2)CC1)c1ccccc1.Cl.Cl (stereo not drawn) [Compound 16, 1-[2-[bis-(4-fluorophenyl)methoxy]ethyl]-4-(3-phenyl-3-methoxypropyl]piperazine dihydrochloride] | – | 50 nM | 4.6 mg/kg | 13.2 nM | 523 nM | – |
| CNC(=O)OC(CCN1CCN(CCOC(c2ccc(F)cc2)c2ccc(F)cc2)CC1)c1ccccc1 (stereo not drawn) [Compound 17, methylcarbaminic 3-[4-[2-[bis(4-fluorophenyl)methoxy]ethyl]-1-piperazinyl]-1-phenylpropyl]ester (Z)-2-butendioate (1:2)] | – | 27.2 nM | 4.3 mg/kg | 4.9 nM | 97.3 nM | 7.2 mg/kg p.o. |
| CCNC(=O)OC(CCN1CCN(CCOC(c2ccc(F)cc2)c2ccc(F)cc2)CC1)c1ccccc1 (stereo not drawn) [Compound 18, Ethylcarbaminic[3-[4-[2-[bis(fluorophenyl)methoxy]ethyl]-1-piperazinyl]-1-phenylpropyl]ester (Z)-2-butenedioate (1:2)] | 216 nM | 16.9 nM | 11.2 mg/kg | 2.4 nM | – | – |
| O=C(Nc1ccccc1)OC(CCN1CCN(CCOC(c2ccc(F)cc2)c2ccc(F)cc2)CC1)c1ccccc1 (stereo not drawn) [Compound 19, Phenylcarbaminic[3-[4-[2-[bis(4-fluorophenyl)methoxy]ethyl]-1-piperazinyl]-1-phenylpropyl]ester (Z)-2-butenedioate (1:2)] | 302 nM | 43.4 nM | – | 3.3 nM | – | – |
| CC(C)C[C@H]1C(=O)N2CCC[C@H]2[C@]2(O)O[C@](NC(=O)[C@@H]3C=C4c5cccc6[nH]c(Br)c(c56)C[C@H]4N(C)C3)(C(C)C)C(=O)N12 [bromocriptine, reference compound] | – | – | 25.3 mg/kg | – | – | – |
| c1cnc(N2CCN(Cc3ccc4c(c3)OCO4)CC2)nc1 [piribedil, reference compound] | – | – | 99.5 mg/kg | – | – | – |
